Results on 1 compound are retold here after patent US11891601B2, “Method to enhance the transcription regulation of SUPT4H on genes containing repetitive nucleotide sequences” (National Yang-Ming University, priority 2018, dated 2024).

This assay deals with genes with lengthy repetitive nucleotide sequences (Q81-GFP, mutant HTT). Put plainly: RT-qPCR of (CAG)n-GFP / HTT mRNA with SUPT4H siRNA knockdown plus tropolone. It is filed as cell-based. The following applies: together with SUPT4H siRNA; only in the genes with lengthy repetitive nucleotide sequences. As for the experimental part: ST14A, Hdh^Q7/Q7 and Hdh^Q111/Q111 were maintained in DMEM (HyClone) supplemented with 15% fetal bovine serum at 33° C. with 5% CO2. ST14A^tet is a genetic engineered stable line, which integrated pTet-Off construct in the genome of ST14A cells and could trigger the expression of pTRE2-(CAG)n-eGFP plasmid in the absence of tetracycline. Lipofectamine 2000 (Invitrogen) transfection reagent was used to deliver siRNA or together with pTRE2-(CAG)n-eGFP into cells. 100 nM of SUPT4H siRNA (DHARMACON, ON-TARGET plus SMART pool, L-048866-01) and (DHARMACON, J-086342-10, 5′-[…]-3′ (SEQ ID NO: 1) and 5′-[…]-(SEQ ID NO: 2)) were used to knock-down SUPT4H expression in mice and rat cells, respectively.
For mammalian cells, total RNA was isolated using TRIzol reagent as per manufacturer's instruction (Invitrogen). […] The amount of cDNAs were quantified by StepOnePlus Real-Time qPCR system (Applied Biosystems) and analyzed by the Quantitative-Comparative CT (AACT) program. Rat SUPT4H, eGFP, mouse SUPT4H, and Mouse HTT were measured using corresponding primer sets as indicated in TABLE 3. snRNA U6 was included as a loading control. […]
Please refer to FIG. 6. […] A relative high signal of R-loops was detected in (CAG)7-eGFP, but this signal is not increased by tropolone. […] RNA was extracted and analyzed by real-time RT-qPCR to measure the quantity of (CAG)n-GFP, SUPT4H and snRNA U6. […]
In general terms: In qPCR the cycle at which signal appears reflects the starting amount.

Take `O=c1cccccc1O` [Tropolone]: the “level of transcriptional reduction by SUPT4H siRNA knockdown upon tropolone treatment” value is recorded as “further increased”.
